{"source": "patent US20070238725A1", "about": "“Therapeutic combinations for the treatment or prevention of psychotic disorders” (Wyeth, priority 2006, published 2007)", "key": {"[1]": {"test_system": "stereotypy", "assay": "Apomorphine-induced stereotypy scored in the climbing test", "assay_type": "in vivo, mice", "method": "(§1) Mice were acclimated to the climbing cages for at least 1 hour and then dosed with either the vehicle or a dose of haloperidol or clozapine followed by a dose of either vehicle or a dose of Compound 1. Thirty minutes after dosing all mice received 1 mg/kg, s.c. apomorphine and returned to the climbing cages. Five minutes after apomorphine the mice were observed and scored for climbing and stereotypy every 5 minutes for the 30 minute test session."}, "[2]": {"test_system": "haloperidol induced catalepsy", "assay": "Catalepsy (bar test), extra-pyramidal side effect liability", "assay_type": "in vivo, mice", "conditions": "for dose for increased EPS liability with co-administration: co-administration with haloperidol, mice", "method": "(Compound 2, “cpd 2”) to exemplify, the present Example describes an experiment in which a compound of formula I was administered in combination with haloperidol to assess extra-pyramidal side effect liability, as represented by cataleptic behavior. [table] [table] [table] Mice were dosed with either the vehicle or a dose of haloperidol followed by a dose of either vehicle or a dose of Compound 1 or Compound 2. Thirty, 60, 90 and 120 minutes after dosing, the forelegs are draped over a thin horizontal rod 1.75″ high. The number of seconds up to 60 sec for which the mouse remains on the bar is recorded at each test point and presented as the percent of maximum possible response (60 sec)."}, "[3]": {"test_system": "conditioned avoidance responding", "assay": "Conditioned avoidance responding", "assay_type": "in vivo", "conditions": "rats", "method": "(Compound 2, “cpd 2”) to exemplify, the present Example describes an experiment to determine the effect of co-administration of haloperidol (0.54 mg/kg, i.p. 30′ pretreatment) or clozapine (5.4 mg/kg, i.p., 30′ pretreatment) and compound 1 (0.54 mg/kg, i.p., 30′ pretreatment) or compound 2 (1 mg/kg, i.p. 30′ pretreatment) on conditioned avoidance responding.\nMale rats had been trained to a stable criterion performance of 90% avoidance responding and had been used in previous drug studies. The dosing plan was a within subject pseudo random design so that all rats received all treatments over several weeks. On test days in experiments 1 and 2 the rats were dosed with vehicle, Compound 1, haloperidol or clozapine or a combination of Compound 1/haloperidol or Compound 1/clozapine. On test days in experiments 3 and 4 the rats were dosed with vehicle, Compound 2, haloperidol or clozapine or a combination of Compound 2/haloperidol or Compound 2/clozapine. Conditioned avoidance testing commenced 30 minutes after treatment and the rats received 50 trials and the number of avoidance, escape and no response trials was recorded."}, "[4]": {"test_system": "apomorphine-induced climbing", "assay": "Apomorphine-induced climbing in mice", "assay_type": "in vivo", "conditions": "for block of apomorphine-induced climbing: versus either compound alone; for ED50: Mus musculus, read-out: ED50 for apomorphine block; for dose for increased efficacy with co-administration: co-administration with haloperidol", "method": "(Compound 2, “cpd 2”) to exemplify, the present Example describes four experiments in which a compound of formula I, was administered in combination with either a typical (exemplified by haloperidol) or atypical (exemplified by clozapine). The combination reduced apomorphine-induced climbing without side effects.\nas §1"}, "[5]": {"conditions": "administered individually, 0.54 mg/kg i.p., 30 min pretreatment"}, "[6]": {"conditions": "sc, 0.5 h, compound alone, mice, apomorphine 1 mg/kg s.c. 30 min after dosing"}}, "note": "Like-named read-outs stand apart in the source and are kept apart here."}
{"smiles": "c1cc2c3c(c1)[C@H]1CCC[C@H]1N3CCNC2", "note": "[Compound 1]", "values": [{"measurement": "stereotypy relative to 0.3 haloperidol alone", "setting": "[1]; 0.3 mg/kg haloperidol with all doses of Compound 1 (1.7, 5.4, 17 mg/kg)", "value": "decreased stereotypy"}, {"measurement": "decrease in stereotypy", "setting": "[1]; 17 mg/kg Compound 1 and 0.17 mg/kg haloperidol combined treatment group", "value": "< 10", "unit": "%"}, {"measurement": "decrease in stereotypy", "setting": "[1]; 17 mg/kg Compound 1 and 5.4 mg/kg clozapine combined treatment", "value": "~13", "unit": "%"}, {"measurement": "catalepsy, percent of maximum catalepsy (60 sec on bar)", "setting": "[2]; Compound 1 17 mg/kg with 0.17 and 0.3 mg/kg haloperidol, moderate increase, 30-120 min after dosing", "value": "up to 30%"}, {"measurement": "dose for increased EPS liability with co-administration", "setting": "[2]", "value": "≥ 17", "unit": "mg/kg"}, {"measurement": "potentiation of haloperidol-induced catalepsy", "setting": "[2]; lower doses of Compound 1 (1.7, 5.4 mg/kg) with 0.17 and 0.3 mg/kg haloperidol", "value": "failed to potentiate catalepsy"}, {"measurement": "decrease in avoidance responding", "setting": "[3]; Compound 1 0.54 mg/kg co-administered with clozapine 5.4 mg/kg, i.p.", "value": "> 70", "unit": "%"}, {"measurement": "effect on number of no response trials", "setting": "[3]; Compound 1 0.54 mg/kg co-administered with clozapine 5.4 mg/kg", "value": "no adverse effects"}, {"measurement": "decrease in avoidance responding", "setting": "[3]; Compound 1 0.54 mg/kg co-administered with haloperidol 0.54 mg/kg, i.p.", "value": "> 70", "unit": "%"}, {"measurement": "effect on number of no response trials", "setting": "[3]; Compound 1 0.54 mg/kg co-administered with haloperidol 0.54 mg/kg", "value": "no adverse effects"}, {"measurement": "decrease in avoidance responding", "setting": "[3]; [5]", "value": "~10", "unit": "%"}, {"measurement": "block of apomorphine-induced climbing", "setting": "[4]; Compound 1 5.4 & 17 mg/kg co-administered with clozapine 3 & 5.4 mg/kg", "value": "greater block"}, {"measurement": "block of apomorphine-induced climbing", "setting": "[4]; Compound 1 5.4 & 17 mg/kg co-administered with haloperidol 0.17 & 0.3 mg/kg", "value": "greater block"}, {"measurement": "ED50", "setting": "[4]; [6]", "value": 17, "unit": "mg/kg"}, {"measurement": "dose for increased efficacy with co-administration", "setting": "[4]; mice", "value": 5.4, "unit": "mg/kg"}, {"measurement": "ED50 for apomorphine block", "setting": "[4]; compound alone, mice, apomorphine 1 mg/kg s.c. 30 min after dosing", "value": 15.89, "unit": "mg/kg"}]}
{"smiles": "O=C(CCCN1CCC(O)(c2ccc(Cl)cc2)CC1)c1ccc(F)cc1", "note": "[haloperidol, 4-[4-(4-chlorophenyl)-4-hydroxy-1-piperidinyl]-1-(4-fluoro-phenyl)-1-butanone, reference compound]", "values": [{"measurement": "decrease in avoidance responding", "setting": "[3]; [5]", "value": "~10", "unit": "%"}]}
{"smiles": "c1cc2c3c(c1)[C@H]1CCC[C@H]1CN3CCNC2", "note": "[Compound 2]", "values": [{"measurement": "decrease in stereotypy", "setting": "[1]; 30 mg/kg Compound 2 and 0.17 mg/kg haloperidol combined treatment relative to haloperidol alone", "value": "~30", "unit": "%"}, {"measurement": "decrease in stereotypy", "setting": "[1]; 30 mg/kg Compound 2 and 5.4 mg/kg clozapine combined treatment", "value": "~20", "unit": "%"}, {"measurement": "potentiation of haloperidol-induced catalepsy", "setting": "[2]; Compound 2 10 mg/kg with haloperidol 0.1 and 0.17 mg/kg", "value": "failed to potentiate"}, {"measurement": "dose for increased EPS liability with co-administration", "setting": "[2]", "value": "> 10", "unit": "mg/kg"}, {"measurement": "decrease in avoidance responding", "setting": "[3]; Compound 2 1 mg/kg co-administered with clozapine 5.4 mg/kg, i.p.", "value": "> 60", "unit": "%"}, {"measurement": "effect on number of no response trials", "setting": "[3]; Compound 2 1 mg/kg co-administered with clozapine 5.4 mg/kg", "value": "no adverse effects"}, {"measurement": "decrease in avoidance responding", "setting": "[3]; Compound 2 1 mg/kg co-administered with haloperidol 0.54 mg/kg, i.p.", "value": "> 50", "unit": "%"}, {"measurement": "effect on number of no response trials", "setting": "[3]; Compound 2 1 mg/kg co-administered with haloperidol 0.54 mg/kg", "value": "no adverse effects"}, {"measurement": "block of apomorphine-induced climbing", "setting": "[4]; Compound 2 3, 10 & 30 mg/kg co-administered with clozapine 3 & 5.4 mg/kg", "value": "greater block"}, {"measurement": "block of apomorphine-induced climbing", "setting": "[4]; Compound 2 3, 10 & 30 mg/kg co-administered with haloperidol 0.1 & 0.17 mg/kg", "value": "greater block"}, {"measurement": "ED50", "setting": "[4]; co-administered with 0.1 mg/kg of haloperidol, mice", "value": 2.4, "unit": "mg/kg"}, {"measurement": "ED50", "setting": "[4]; co-administered with 0.17 mg/kg of haloperidol, mice", "value": 4.1, "unit": "mg/kg"}, {"measurement": "ED50", "setting": "[4]; compound alone, Experiment 4, mice", "value": 27.1, "unit": "mg/kg"}, {"measurement": "ED50", "setting": "[4]; [6]", "value": 27.1, "unit": "mg/kg"}, {"measurement": "dose for increased efficacy with co-administration", "setting": "[4]; mice", "value": 3, "unit": "mg/kg"}]}
{"smiles": "CN1CCN(C2=Nc3cc(Cl)ccc3Nc3ccccc32)CC1", "note": "[clozapine, 8-chloro-11-(4-methyl-1-piperazinyl)-5H-dibenzo[b,e]-[1,4]-diazepine, reference compound]", "values": [{"measurement": "decrease in avoidance responding", "setting": "[3]; administered individually, 5.4 mg/kg i.p., 30 min pretreatment", "value": "~10", "unit": "%"}]}
